Results: patent publication US20240251792A1, “WEED CONTROL METHOD” (SYNGENTA CROP PROTECTION AG, priority 2021, published 2024)
Read-outs that look alike come from different tables or passages of the source.

How the values were obtained:
Assay type in all cases: in vivo
weeds and/or crops = assay: Post-emergence biological efficacy (Table 4); details: 1000 g/ha, evaluated after 13 days; for pest or weed control at 1000 g/ha: 312 h
Summary of the method: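 Weeds and crops were grown 14 days in a glasshouse, then sprayed post-emergence with compound formulated in acetone/F50 and diluted in 0.2% Genapol X080 to the final dose. Damage was scored after 13 days on a 0–100 scale, where 100 is total damage.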

AMARE = assay: Pre-emergence biological efficacy (Table 3); details: Amaranthus retroflexus, 312 h, 1000 g/ha, after 13 days, read-out: evaluation (100=total damage to plant; 0=no damage to plant)
Summary of the method: (§1)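 Seeds were sown in standard soil in pots, kept one day in a glasshouse (24/19 °C day/night, 16 h light), then sprayed with an aqueous dilution in 0.2% Genapol X080 of a 50 g/l stock in acetone/AMA emulsifier mix. Damage was scored visually after 13 days (0 = none, 100 = total).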

LOLPE = assay: Pre-emergence biological efficacy (Table 3); details: 1000 g/ha, after 13 days
Summary of the method: as §1

SETFA = assay: Pre-emergence biological efficacy (Table 3); details: Setaria faberi, 312 h, 1000 g/ha, after 13 days, read-out: evaluation (100=total damage to plant; 0=no damage to plant)
Summary of the method: as §1

IPOHE = assay: Pre-emergence biological efficacy (Table 3); details: Ipomoea hederacea, 312 h, 1000 g/ha, after 13 days, read-out: evaluation (100=total damage to plant; 0=no damage to plant)
Summary of the method: as §1

SOLNI = assay: Pre-emergence biological efficacy (Table 3); details: 1000 g/ha, after 13 days
Summary of the method: as §1

ECHCG = assay: Pre-emergence biological efficacy (Table 3); details: Echinochloa crus-galli, 312 h, 1000 g/ha, after 13 days, read-out: evaluation (100=total damage to plant; 0=no damage to plant)
Summary of the method: as §1

AMAPA = assay: Pre-emergence biological efficacy (Table 3); details: 312 h, 1000 g/ha, after 13 days, read-out: evaluation (100=total damage to plant; 0=no damage to plant)
Summary of the method: as §1

ZEAMX = assay: Pre-emergence biological efficacy (Table 3); details: 312 h, 1000 g/ha, after 13 days, read-out: evaluation (100=total damage to plant; 0=no damage to plant)
Summary of the method: as §1

[1] = Amaranthus retroflexus, AMARE, read-out: damage to plant AMARE (100=total damage; 0=no damage)
[2] = Echinochloa crus-galli, ECHCG, read-out: damage to plant ECHCG (100=total damage; 0=no damage)
[3] = Ipomoea hederacea, IPOHE, read-out: damage to plant IPOHE (100=total damage; 0=no damage)
[4] = Setaria faberi, SETFA, read-out: damage to plant SETFA (100=total damage; 0=no damage)
[5] = AMAPA, read-out: damage to plant AMAPA (100=total damage; 0=no damage)
[6] = ZEAMX, read-out: damage to plant ZEAMX (100=total damage; 0=no damage)

Row | Compound | pest or weed control at 1000 g/ha (weeds and/or crops; [1]) [%] | pest or weed control at 1000 g/ha (weeds and/or crops; [2]) [%] | pest or weed control at 1000 g/ha (weeds and/or crops; [3]) [%] | damage to plant LOLPE (100=total damage; 0=no damage) (weeds and/or crops) | damage to plant SOLNI (100=total damage; 0=no damage) (weeds and/or crops) | pest or weed control at 1000 g/ha (weeds and/or crops; [4]) [%] | pest or weed control at 1000 g/ha (AMARE) [%] | evaluation (100=total damage to plant; 0=no damage to plant) (LOLPE) | pest or weed control at 1000 g/ha (SETFA) [%] | pest or weed control at 1000 g/ha (IPOHE) [%] | evaluation (100=total damage to plant; 0=no damage to plant) (SOLNI) | pest or weed control at 1000 g/ha (ECHCG) [%] | pest or weed control at 1000 g/ha (weeds and/or crops; [5]) [%] | pest or weed control at 1000 g/ha (weeds and/or crops; [6]) [%] | pest or weed control at 1000 g/ha (AMAPA) [%] | plant injury at 1000 g/ha (ZEAMX) [%]
1 | O=C(O)C(F)(F)c1c(Cl)ccc2cc(Cl)cnc12 [Compound 1-418, 2-(3,7-Dichloro-8-quinolyl)-2,2-difluoro-acetic acid] | 50 | 0 | 40 | 0 | 90 | 0 | 30 | 0 | 50 | 50 | 10 | 20 |  |  |  | 
2 | COc1c(Cl)ccc(Cl)c1C(F)(F)C(=O)O [Compound 1-326, 2-(3,6-dichloro-2-methoxy-phenyl)-2,2-difluoro-acetic acid] | 80 | 0 | 80 | 0 |  | 0 | 50 | 10 | 10 | 20 |  | 30 |  |  |  | 
3 | COC(=O)C(F)(F)c1c(Cl)cccc1OC [Compound 2-65, Methyl 2-(2-chloro-6-methoxy-phenyl)-2,2-difluoro-acetate] | 70 | 40 | 70 | 0 | 30 | 10 | 50 | 0 | 0 | 70 | 10 | 0 |  |  |  | 
4 | COc1cccc(Cl)c1C(F)(F)C(=O)O [Compound 1-65, 2-(2-Chloro-6-methoxy-phenyl)-2,2-difluoro-acetic acid] | 70 | 0 | 70 | 0 |  | 0 | 60 | 0 | 0 | 40 |  | 0 |  |  |  | 
5 | O=C(O)C(F)(F)c1cccc2c1CCO2 [Compound 1-420, 2-(2,3-Dihydrobenzofuran-4-yl)-2,2-difluoro-acetic acid] | 80 | 10 | 70 |  |  | 10 | 80 |  | 0 | 70 |  | 0 | 70 | 10 | 60 | 10
6 | COC(=O)C(F)(F)c1c(Cl)ccc2cc(Cl)cnc12 [Compound 2-418, Methyl 2-(3,7-dichloro-8-quinolyl)-2,2-difluoro-acetate] | 70 | 0 | 80 | 0 |  | 0 | 60 | 0 | 20 | 50 |  | 10 |  |  |  | 
7 | Cc1cccc(C(F)(F)C(=O)O)c1C#N [Compound 1-462, 2-(2-Cyano-3-methyl-phenyl)-2,2-difluoro-acetic acid] | 80 | 0 | 70 |  |  | 20 | 50 |  | 0 | 40 |  | 0 | 80 | 10 | 30 | 0
8 | COC(=O)C(F)(F)c1c(Cl)ccc(Cl)c1OC [Compound 2-326, methyl 2-(3,6-dichloro-2-methoxy-phenyl)-2,2-difluoro-acetate] | 70 | 0 | 40 | 0 |  | 0 | 40 | 10 | 10 | 40 |  | 20 |  |  |  | 
9 | COC(=O)c1c(Cl)cccc1C(F)(F)C(=O)O [Compound 1-444, 2-(3-Chloro-2-methoxycarbonyl-phenyl)-2,2-difluoro-acetic acid] | 70 | 10 | 50 |  |  | 20 | 40 |  | 0 | 50 |  | 0 | 60 | 10 | 60 | 0
10 | O=C(O)C(F)(F)c1cccc(OC(F)F)c1Cl [Compound 1-459, 2-[2-Chloro-3-(difluoromethoxy)phenyl]-2,2-difluoro-acetic acid] | 80 | 40 | 90 |  |  | 60 | 70 |  | 100 | 90 |  | 50 | 80 | 20 | 80 | 0
11 | COc1ccc(C(F)(F)C(=O)O)c([N+](=O)[O-])c1F [Compound 1-461, 2,2-Difluoro-2-(3-fluoro-4-methoxy-2-nitro-phenyl)acetic acid] | 80 | 10 | 20 |  |  | 30 | 40 |  | 30 | 20 |  | 0 | 80 | 0 | 30 | 10
